The source made the active and inactive calls. The calls are words filed in the database; no cut-off is given here.
Columns and labels:
[1] = Displacement of [3H]idazoxan from I2-imidazoline binding site in rabbit kidney membrane; type: cell membranes, Oryctolagus cuniculus
[2] = Displacement of [3H]clonidine from I1-imidazoline binding site in bovine adrenal medulla plasma membrane; type: tissue-based, Bos taurus
[3] = Effect on glucose-dependent insulin secretion activity per ug of total protein in rat RIN5F cells at 10 uM after 30 mins; type: functional
[4] = Effect on glucose-dependent insulin secretion activity per ug of total protein in rat RIN5F cells at 1 uM after 30 mins; type: functional
[5] = Displacement of [3H]clonidine from alpha-2-adrenoceptor in cerebral cortex of rat brain; type: tissue-based
[6] = Effect on glucose-dependent insulin secretion activity per ug of total protein in rat RIN5F cells at 0.1 uM after 30 mins; type: functional
Rattus norvegicus = organism: Rattus norvegicus; assay: Displacement of [3H]clonidine from alpha2-AR in cerebral cortex of rat brain upto 100 uM; type: tissue-based
Bos taurus = organism: Bos taurus; assay: Displacement of [3H]clonidine from I1-imidazoline binding site in bovine adrenal medulla plasma membrane upto 100 uM; type: tissue-based
Oryctolagus cuniculus = organism: Oryctolagus cuniculus; assay: Displacement of [3H]idazoxan from I2-imidazoline binding site in rabbit kidney membrane upto 100 uM; type: cell membranes
[7] = Effect on insulin secretion activity per ug of total protein in rat RIN5F cells at 1 uM after 30 mins; type: functional
[8] = Effect on insulin secretion activity per ug of total protein in rat RIN5F cells at 0.1 uM after 30 mins; type: functional

| Activity (Rattus norvegicus) | Activity (Bos taurus) | Activity (Oryctolagus cuniculus) | SMILES | Ki [1] [nM] | Ki [2] [nM] | Activity [3] [pg/µg/h] | Activity [4] [pg/µg/h] | Ki [5] [nM] | Activity [6] [pg/µg/h] | Activity [7] [pg/µg/h] | Activity [8] [pg/µg/h] |
| --- | --- | --- | --- | --- | --- | --- | --- | --- | --- | --- | --- |
|  |  |  | Cc1nccc2c1[nH]c1ccccc12 [HARMAN] | 54 | 36 | 37 | 27 | > 12000 | 20 |  |  |
| inactive | inactive | inactive | COC(=O)c1cc2c3cc(C)cnc3n(C)c2c(Cc2ccccc2)n1 |  |  | 16.9 | 16.1 |  | 15.9 |  |  |
| inactive | inactive | inactive | COC(=O)C1Cc2c(n(C)c3ncc(C)cc23)C(Cc2ccccc2)N1 (stereo not drawn) |  |  | 16.8 | 15.9 |  | 15.1 |  |  |
| inactive | inactive | inactive | Cc1cnc2c(c1)c1cc(C(=O)O)nc(Cc3ccccc3)c1n2C |  |  | 38.3 | 28.1 |  | 20 |  |  |
|  |  |  | CCCCNC(=O)NS(=O)(=O)c1ccc(C)cc1 [TOLBUTAMIDE] |  |  |  | 27.1 |  | 19.9 | 26 | 19.6 |

From ChEMBL document CHEMBL1149631, “Synthesis of 3,8,9-trisubstituted-1,7,9-triaza-fluorene-6-carboxylic acid derivatives as a new class of insulin secretagogues” (Bioorg Med Chem, 2007)
